# Data from patent US11427606B2, “Azithromycin derivatives containing a phosphonium ion as anticancer agents” (Rising Tide Foundation, priority 2017, dated 2022).
# System: MDA-231 cancer cells
# Assay: Inhibition of proliferation assay: cell confluence (IncuCyte imaging)
# Type: cell-based
# Conditions: compound at 10 uM; MDA-231 cells; IncuCyte images every 3 h over 4-5 d; relative confluence normalised to time zero
# Description: Inhibition of Proliferation Assay
# The confluence value is a surrogate for cell proliferation and growth. The value is expressed as a percent confluence, which represents the fraction of culture dish-surface that is occupied by cells. As the number of cells in the dish increases over time due to proliferation, so will their coverage of that surface increase. Expansion of the cell population on the cell culture-dish surface and confluence have mostly a linear relationship until the cells on the plate surface begin to reach saturation or maximum density.
# Confluence is determined based on image analysis. Image based software can identify objects in the image field base on changes to pixel density in a grey scale image. The software can then assign a mask to those pixels within the object. Objects can be ‘gated’ out based on size and shape. To determine cell confluence, images of cells are first masked as objects. The surface area of the image that is masked is measured and compared to the total surface area of the culture dish surface to obtain a percent confluence.
# MDA-231 cancer cells were obtained from ATCC. Cells were cultured in Dulbecco's Modified Eagle Medium (DMEM) supplemented with 10% Fetal Bovine Serum (FBS), 2 mM Glutamax, 1 mM Non Essential Amino Acid (NEAA) solution and 1 mM sodium pyruvate. […] Final DMSO concentrations were […]. Images were acquired with an IncuCyte Live Cell Imaging microscopy (Essen Bioscience) at every 3 h under cell culture conditions with 10× objective over 4-5 d. Cell confluence was calculated from one field of view per well using the IncuCyte in-built algorithm. Relative confluence values were obtained by normalising each value to the time zero value in each sample.
row,SMILES,% Confluence [%]
1,"CC[C@H]1OC(=O)[C@H](C)[C@@H](O[C@H]2C[C@@](C)(OC)[C@@H](O)[C@H](C)O2)[C@H](C)[C@@H](O[C@@H]2O[C@H](C)C[C@H](N(C)C)[C@H]2O)[C@](C)(O)C[C@@H](C)CN(C(=O)CCCCCCC[P+](c2ccccc2-c2c(OC(C)C)cccc2OC(C)C)(C2CCCCC2)C2CCCCC2)[C@H](C)[C@@H](O)[C@]1(C)O [Example 6, [2′,6′-bis(propan-2-yloxy)-[1,1′-biphenyl]-2-yl]dicyclohexyl{8-[(2R,3S,4R,5R,8R,10R,11R,12S,13S,14R)-11-{[(2S,3R,4S,6R)-4-(dimethylamino)-3-hydroxy-6-methyloxan-2-yl]oxy}-2-ethyl-3,4,10-trihydroxy-13-{[(2R,4R,5S,6S)-5-hydroxy-4-methoxy-4,6-dimethyloxan-2-yl]oxy}-3,5,8,10,12,14-hexamethyl-15-oxo-1-oxa-6-azacyclopentadecan-6-yl]-8-oxooctyl}phosphonium hexafluorophosphate(V)]",4
2,"CC[C@H]1OC(=O)[C@H](C)[C@@H](O[C@H]2C[C@@](C)(OC)[C@@H](O)[C@H](C)O2)[C@H](C)[C@@H](O[C@@H]2O[C@H](C)C[C@H](N(C)C)[C@H]2O)[C@](C)(O)C[C@@H](C)CN(C(=O)CCCCCCC[P+](C2CCCCC2)(C2CCCCC2)C2CCCCC2)[C@H](C)[C@@H](O)[C@]1(C)O [Example 7, tricyclohexyl({8-[(2R,3S,4R,5R,8R,10R,11R,12S,13S,14R)-11-{[(2S,3R,4S,6R)-4-(dimethylamino)-3-hydroxy-6-methyloxan-2-yl]oxy}-2-ethyl-3,4,10-trihydroxy-13-{[(2R,4R,5S,6S)-5-hydroxy-4-methoxy-4,6-dimethyloxan-2-yl]oxy}-3,5,8,10,12,14-hexamethyl-15-oxo-1-oxa-6-azacyclopentadecan-6-yl]-8-oxooctyl})phosphonium hexafluorophosphate(V)]",75.3
3,"CC[C@H]1OC(=O)[C@H](C)[C@@H](O[C@H]2C[C@@](C)(OC)[C@@H](O)[C@H](C)O2)[C@H](C)[C@@H](O[C@@H]2O[C@H](C)C[C@H](N(C)C)[C@H]2O)[C@](C)(O)C[C@@H](C)CN(C(=O)CCCCCCC[P+](c2ccccc2)(c2ccccc2)c2ccccn2)[C@H](C)[C@@H](O)[C@]1(C)O [Example 8, {8-[(2R,3S,4R,5R,8R,10R,11R,12S,13S,14R)-11-{[(2S,3R,4S,6R)-4-(dimethylamino)-3-hydroxy-6-methyloxan-2-yl]oxy}-2-ethyl-3,4,10-trihydroxy-13-{[(2R,4R,5S,6S)-5-hydroxy-4-methoxy-4,6-dimethyloxan-2-yl]oxy}-3,5,8,10,12,14-hexamethyl-15-oxo-1-oxa-6-azacyclopentadecan-6-yl]-8-oxooctyl}diphenyl(pyridine-2-yl)phosphonium hexafluorophosphate(V)]",83
4,CC[C@H]1OC(=O)[C@H](C)[C@@H](O[C@H]2C[C@@](C)(OC)[C@@H](O)[C@H](C)O2)[C@H](C)[C@@H](O[C@@H]2O[C@H](C)C[C@H](N(C)C)[C@H]2O)[C@](C)(O)C[C@@H](C)CN(CCCCCC[P+](C2CCCCC2)(C2CCCCC2)C2CCCCC2)[C@H](C)[C@@H](O)[C@]1(C)O.[I-] [Example 9],70.9
5,"CC[C@H]1OC(=O)[C@H](C)[C@@H](O[C@H]2C[C@@](C)(OC)[C@@H](O)[C@H](C)O2)[C@H](C)[C@@H](O[C@@H]2O[C@H](C)C[C@H](N(C)C)[C@H]2O)[C@](C)(O)C[C@@H](C)CN(CCCCCC[P+](c2ccccc2-c2ccccc2N(C)C)(C2CCCCC2)C2CCCCC2)[C@H](C)[C@@H](O)[C@]1(C)O [Example 10, dicyclohexyl({6-[(2R,3S,4R,5R,8R,10R,11R,12S,13S,14R)-11-{[(2S,3R,4S,6R)-4-(dimethylamino)-3-hydroxy-6-methyloxan-2-yl]oxy}-2-ethyl-3,4,10-trihydroxy-13-{[(2R,4R,5S,6S)-5-hydroxy-4-methoxy-4,6-dimethyloxan-2-yl]oxy}-3,5,8,10,12,14-hexamethyl-15-oxo-1-oxa-6-azacyclopentadecan-6-yl]hexyl})[2′-(dimethylamino)-[1,1′-biphenyl]-2-yl]phosphonium iodide]",4
6,CC[C@H]1OC(=O)[C@H](C)[C@@H](O[C@H]2C[C@@](C)(OC)[C@@H](O)[C@H](C)O2)[C@H](C)[C@@H](O[C@@H]2O[C@H](C)C[C@H](N(C)C)[C@H]2O)[C@](C)(O)C[C@@H](C)CN(CCCCCCCC[P+](c2ccccc2)(c2ccccc2)c2ccc(N(C)C)cc2)[C@H](C)[C@@H](O)[C@]1(C)O.[I-] [Example 12],4.1
7,CC[C@H]1OC(=O)[C@H](C)[C@@H](O[C@H]2C[C@@](C)(OC)[C@@H](O)[C@H](C)O2)[C@H](C)[C@@H](O[C@@H]2O[C@H](C)C[C@H](N(C)C)[C@H]2O)[C@](C)(O)C[C@@H](C)CN(CCCCCCCC[P+](c2ccc(OC)cc2)(c2ccc(OC)cc2)c2ccc(OC)cc2)[C@H](C)[C@@H](O)[C@]1(C)O.[I-] [Example 13],4.8
8,CC[C@H]1OC(=O)[C@H](C)[C@@H](O[C@H]2C[C@@](C)(OC)[C@@H](O)[C@H](C)O2)[C@H](C)[C@@H](O[C@@H]2O[C@H](C)C[C@H](N(C)C)[C@H]2O)[C@](C)(O)C[C@@H](C)CN(CCCCCCCCCC[P+](c2ccc(OC)cc2)(c2ccc(OC)cc2)c2ccc(OC)cc2)[C@H](C)[C@@H](O)[C@]1(C)O.[I-] [Example 15],16.6
9,"CC[C@H]1OC(=O)[C@H](C)[C@@H](O[C@H]2C[C@@](C)(OC)[C@@H](O)[C@H](C)O2)[C@H](C)[C@@H](O[C@@H]2O[C@H](C)C[C@H](N(C)C)[C@H]2O)[C@](C)(O)C[C@@H](C)CN(C(=O)CCCCCCC[P+](c2cc(C)cc(C)c2)(c2cc(C)cc(C)c2)c2cc(C)cc(C)c2)[C@H](C)[C@@H](O)[C@]1(C)O [Example 16, {8-[(2R,3S,4R,5R,8R,10R,11R,12S,13S,14R)-11-{[(2S,3R,4S,6R)-4-(dimethylamino)-3-hydroxy-6-methyloxan-2-yl]oxy}-2-ethyl-3,4,10-trihydroxy-13-{[(2R,4R,5S,6S)-5-hydroxy-4-methoxy-4,6-dimethyloxan-2-yl]oxy}-3,5,8,10,12,14-hexamethyl-15-oxo-1-oxa-6-azacyclopentadecan-6-yl]-8-oxooctyl}tris(3,5-dimethylphenyl)phosphonium hexafluorophosphate(V)]",10
10,"CC[C@H]1OC(=O)[C@H](C)[C@@H](O[C@H]2C[C@@](C)(OC)[C@@H](O)[C@H](C)O2)[C@H](C)[C@@H](O[C@@H]2O[C@H](C)C[C@H](N(C)C)[C@H]2O)[C@](C)(O)C[C@@H](C)CN(C(=O)CCCCCCC[P+](c2ccccc2)(c2ccccc2)c2ccccc2CN(C)C)[C@H](C)[C@@H](O)[C@]1(C)O [Example 17, {8-[(2R,3S,4R,5R,8R,10R,11R,12S,13S,14R)-11-{[(2S,3R,4S,6R)-4-(dimethylamino)-3-hydroxy-6-methyloxan-2-yl]oxy}-2-ethyl-3,4,10-trihydroxy-13-{[(2R,4R,5S,6S)-5-hydroxy-4-methoxy-4,6-dimethyloxan-2-yl]oxy}-3,5,8,10,12,14-hexamethyl-15-oxo-1-oxa-6-azacyclopentadecan-6-yl]-8-oxooctyl}({2-[(dimethylamino)methyl]phenyl})diphenylphosphonium hexafluorophosphate(V)]",93.1
